From paper PMC11590367, “Characterization of novel small molecule inhibitors of estrogen receptor-activation function 2 (ER-AF2)” (Breast Cancer Research : BCR, 2024)

Assays:
[1] = molecular target: T1, ER-SRC3 interaction in TamR3 cells (Homo sapiens, UniProt P03372); assay: Proximity ligation assay (PLA), TamR3; type: cell-based
T1 construct: endogenous in cells; host or cells: MCF7 or TamR3 cells
Procedure: (§1) MCF7 or TamR3 cells were starved for 72 h and then seeded onto PEI coated coverslips in a 6-well plate at 1 × 10^5 cells/well. For the E2 experiments, the cells were treated the following day with 10 µM of ER-AF2 inhibitor for 24 h, with E2 added 1 h before fixation. […] 24 h post-treatment, cells were fixed in methanol:acetone (3:1). Coverslips were then permeabilized with 0.05% Triton X-100 for 5 minutes at room temperature. The Duolink In Situ Detection Reagents Red kit from Millipore Sigma (DUO92008) was used for blocking and PLA according to the manufacturer’s protocol.

[2] = system: MCF7 spheroids; assay: Viability assay in 3D spheroids, MCF7; type: cell-based; conditions: Homo sapiens, 1:2 dilution from 50 µM, 1 nM E2, read-out: IC50 on growth (area) of MCF7 spheroids
Procedure: MCF7 and T47D cells were seeded into a Corning Costar ultra-low attachment, round-bottom, 96-well plate (Millipore Sigma, CLS7007-24EA) at a density of 2,500 cells/well in starvation media. After 4 days of starvation, the cells were treated with a 1:2 serial dilution of inhibitor from 50 µM to 0.2 µM in the presence of 1 nM estradiol. Images were taken every 6 h using the IncuCyte S3 system and spheroid sizes were determined with the IncuCyte analysis software.

[3] = system: T47D cells; assay: PrestoBlue viability assay, T47D; type: cell-based; conditions: 1 nM E2, 72 h treatment, ± SD of 3 biological replicates
Procedure: T47D, MCF7, TamR3, and MDA-MB-231 cells were starved for 72 h and then seeded into black clear-bottom 96-well plates (Corning Life Sciences Cat#3904) at 20,000 cells/well (T47D, MCF7, TamR3) or 5,000 cells/well (MDA-MB-231). […] 20 µl of PrestoBlue Cell Viability Reagent (Thermo Fisher A13262) was added to each well and incubated at 37 °C for 1 h. Fluorescence intensity was measured using the TECAN F500 plate reader with emission and excitation wavelengths of […], respectively.

[4] = system: ER transcriptional activity in T47D-KBluc cells; assay: Luciferase transcriptional assay; type: cell-based; conditions: ER transcription, luciferase reporter, 1 nM E2, 24 h treatment, ± SD of 3 biological replicates
Procedure: T47D-KBluc cells or PC3m-luc cells were starved for 72 h and then seeded into 96-well plates at 20,000 or 5,000 cells/well, respectively. […] One day post-treatment, the media was removed, and cells were lysed with 65 µl of 1x passive lysis buffer (Promega #E1910). Following two freeze-thaw cycles, 20 µl of lysate were transferred to a white, 96-well flat bottom plate (Corning Life Sciences Cat#3912). 50 µl of luciferase reagent (Promega. Luciferase Assay System E1500) was added to each well, and luminescence was measured using the TECAN M200 Pro plate reader. E2 (1 nM), 4-hydroxytamoxifen (OHT) (4 nM), and DMSO (0.2%) were used as controls for this assay. […] E2 alone represented 100% transcriptional activation, while the 0.2% DMSO control represented 0% transcriptional activity. OHT was used as a positive control for an active compound.

[5] = molecular target: T2, recombinant ER-LBD (residues 298–554) (Homo sapiens, UniProt P03372); assay: Microscale thermophoresis (MST) direct binding; conditions: averaged from three independent assays, 20 µM E2 in buffer, read-out: Kd (binding affinity to ER-LBD)
T2 construct: The ER-LBD (residues 298–554) was cloned into pET28a bacterial expression plasmid; His-tag (N); made in house; host or cells: E. coli BL21-DE3 (with pRARE)
Procedure: The ER-LBD (residues 298–554) was cloned into pET28a bacterial expression plasmid with an N-terminal His-tag. pET28a-His-ER and pRARE were transformed into E. coli (BL21-DE3). Bacteria were grown at 37 [drawing 1] C overnight, and then diluted 1:20 the following day in LB media and grown at 37 [drawing 2] C until the OD600 reached 0.5. Protein expression was induced with 1 mM IPTG, and 50 µM E2 was added to the media. Cells were then grown for 5 h at 25 °C. Bacterial pellets were collected by centrifugation at 13,000 rpm for 7 min. Pellets were resuspended in lysis buffer (25 mM Tris, pH 8.4, 150 mM NaCl, 20 µM E2, 1 mM DTT, 0.1 mM PMSF, cOmplete protease inhibitor (Roche)) then sonicated and centrifuged to obtain the soluble extracts. ER-LBD was purified using affinity chromatography with Ni-NTA agarose resin. The presence of the ER-LBD in eluted fractions was confirmed by SDS-PAGE and validated by mass spectrometry. The eluted protein was further purified by size exclusion chromatography (s75), and fractions containing the ER-LBD protein were pooled and concentrated using Amicon Ultra centrifugal filters (3 K MWCO).
MST was used to validate the direct binding and measure the binding affinities between the lead compounds and the recombinant ER-LBD. […]

[6] = molecular target: ER-Y537S - SRC3 interaction (Homo sapiens, UniProt P03372, Y537S); assay: Proximity ligation assay, ER-Y537S mutant; type: cell-based; conditions: PLA, 10 µM
Procedure: as §1, with “protocol. Primary antibodies, Estrogen Receptor alpha antibody (F-10) (sc-8002) and Rabbit anti-SRC3 antibody (A300-348 A), were diluted 1:50 in antibody diluent.” for “protocol.”

T1 sequence (P03372 whole entry): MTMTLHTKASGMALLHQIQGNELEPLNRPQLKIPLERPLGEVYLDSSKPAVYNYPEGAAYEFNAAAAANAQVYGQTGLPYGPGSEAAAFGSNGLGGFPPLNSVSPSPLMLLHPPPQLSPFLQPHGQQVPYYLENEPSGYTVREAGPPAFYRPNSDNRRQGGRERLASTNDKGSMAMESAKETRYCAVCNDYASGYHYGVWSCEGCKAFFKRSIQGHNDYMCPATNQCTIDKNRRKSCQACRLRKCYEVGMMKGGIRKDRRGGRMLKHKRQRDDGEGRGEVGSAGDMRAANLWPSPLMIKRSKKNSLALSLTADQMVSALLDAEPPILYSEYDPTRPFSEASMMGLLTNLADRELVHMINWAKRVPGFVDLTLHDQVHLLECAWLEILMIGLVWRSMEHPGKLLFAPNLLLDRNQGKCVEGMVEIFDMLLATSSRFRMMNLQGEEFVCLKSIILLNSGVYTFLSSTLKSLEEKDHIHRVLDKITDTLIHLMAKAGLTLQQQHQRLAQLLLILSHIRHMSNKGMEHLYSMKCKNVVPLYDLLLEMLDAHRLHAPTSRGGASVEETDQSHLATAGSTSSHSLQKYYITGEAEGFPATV
T2 sequence (P03372 298-554): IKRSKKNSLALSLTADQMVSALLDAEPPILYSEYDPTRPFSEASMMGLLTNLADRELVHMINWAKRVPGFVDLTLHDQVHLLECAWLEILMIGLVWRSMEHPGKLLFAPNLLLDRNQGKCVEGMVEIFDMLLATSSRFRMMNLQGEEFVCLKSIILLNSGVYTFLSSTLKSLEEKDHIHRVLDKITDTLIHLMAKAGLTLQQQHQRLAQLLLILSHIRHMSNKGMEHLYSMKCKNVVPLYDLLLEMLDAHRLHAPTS
Sequence of ER-Y537S - SRC3 interaction (P03372 whole entry Y537S): as the sequence (P03372 whole entry) above, with Y537S counted along it

## Cc1cccn2c(CNCc3cccc(N(C)C)n3)cnc12 [VPC-260724]
[1]; 10 µM with 1 µM Tamoxifen
  ER-SRC3 interaction in TamR3 in presence of tamoxifen: reduced this interaction
[1]; 10 µM, 48 h, E2 stimulation
  ER-SRC3 interactions (PLA signals per nuclei), TamR3: significantly reduced ER-SRC3 interactions
[2]
  IC50: 15.6 ± 1.4 µM
[3]
  IC50: 7.42 ± 2.12 µM
[3]; Homo sapiens, T47D, 72 h
  IC50: 7.4 µM
[4]; 24 h
  IC50: 5.7 µM
[4]
  IC50: 5.75 ± 1.13 µM
[5]
  Kd: 85.2 ± 32.7 µM
[6]
  Interaction between SRC3 and ER-Y537S: inhibited the interaction
